Where two headings read alike, the source gives them in different places. A value given as a limit tells only on which side of the number the result lay.

Holding throughout (type): biochemical
In one assay the target is PI3K-alpha (Homo sapiens, UniProt P42336). Nature of the assay: PI3K-alpha fluorescence polarization assay. Background: Fluorescence polarisation rises when a labelled molecule tumbles more slowly, as on binding a larger partner.
The next assay has as its target PI3K-delta (Homo sapiens, UniProt O00329). Description: PI3K-delta fluorescence polarization assay. The settings on record: read-out: PI3Kδ Avg. IC50.
For another assay, the target named is T1, human TOR (Homo sapiens, UniProt P42345).
T1 construct: FLAG
Description: mTOR enzyme assay (DELFIA, His6-S6K substrate). Conditions: read-out: mTOR Kinase Avg. IC50.

The next assay deals with PI3K-beta (Homo sapiens, UniProt P42338). Nature of the assay: PI3K-beta fluorescence polarization assay. Conditions: read-out: PI3Kβ Avg. IC50. Here is the method:
PI3K-Alpha, PI3K-Beta, PI3K-Gamma, and PI3K-delta Fluorescence Polarization Assay Protocols
PI3-Kinase reactions were performed in 5 mM HEPES, pH 7, 2.5 mM MgCl2, and 25 μM ATP, with diC8-PI(4,5)P2 (Echelon, Salt Lake City Utah) as substrate. Nunc 384-well black polypropylene fluorescent plates were used for PI3K assays. Reactions were quenched by the addition of EDTA to a final concentration of 10 mM. Final reaction volumes were 10 μl. For evaluation of PI3K inhibitors, 5 ng of enzyme (PI3K-alpha, beta, gamma, or delta) and 2.5 μM of substrate was used per […] reaction volume, and inhibitor concentrations ranged from 100 μM to 20 μM; the final level of DMSO in reactions never exceeded 2%. Reactions were allowed to proceed for one hour at 25° C. After 1 hour, GST-tagged GRP1 (general receptor for phosphoinositides) PH domain fusion protein was added to a final concentration of 100 nM, and BODIPY-TMRI(1,3,4,5)P4 (Echelon) was also added to a final concentration of 5 nM. Final sample volumes were 25 μl with a final DMSO concentration of 0.8%. Assay Plates were read on Perkin-Elmer Envision plate readers with appropriate filters for Tamra [BODIPY-TMRI(1,3,4,5)P4]. Data obtained were used to calculate enzymatic activity and enzyme inhibition by inhibitor compounds.

A further assay has as its target PI3K-gamma (Homo sapiens, UniProt P48736). Description: PI3K-gamma fluorescence polarization assay. Summed up:
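Reactions used 5 ng enzyme with 2.5 μM diC8-PI(4,5)P2 and 25 μM ATP in 5 mM HEPES pH 7, 2.5 mM MgCl2, run 1 h at 25° C. After an EDTA quench (10 mM), 100 nM GST-GRP1 PH domain and 5 nM BODIPY-TMR-IP4 were added and fluorescence polarization was read.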

Sequence of PI3K-alpha (P42336 whole entry, species assumed): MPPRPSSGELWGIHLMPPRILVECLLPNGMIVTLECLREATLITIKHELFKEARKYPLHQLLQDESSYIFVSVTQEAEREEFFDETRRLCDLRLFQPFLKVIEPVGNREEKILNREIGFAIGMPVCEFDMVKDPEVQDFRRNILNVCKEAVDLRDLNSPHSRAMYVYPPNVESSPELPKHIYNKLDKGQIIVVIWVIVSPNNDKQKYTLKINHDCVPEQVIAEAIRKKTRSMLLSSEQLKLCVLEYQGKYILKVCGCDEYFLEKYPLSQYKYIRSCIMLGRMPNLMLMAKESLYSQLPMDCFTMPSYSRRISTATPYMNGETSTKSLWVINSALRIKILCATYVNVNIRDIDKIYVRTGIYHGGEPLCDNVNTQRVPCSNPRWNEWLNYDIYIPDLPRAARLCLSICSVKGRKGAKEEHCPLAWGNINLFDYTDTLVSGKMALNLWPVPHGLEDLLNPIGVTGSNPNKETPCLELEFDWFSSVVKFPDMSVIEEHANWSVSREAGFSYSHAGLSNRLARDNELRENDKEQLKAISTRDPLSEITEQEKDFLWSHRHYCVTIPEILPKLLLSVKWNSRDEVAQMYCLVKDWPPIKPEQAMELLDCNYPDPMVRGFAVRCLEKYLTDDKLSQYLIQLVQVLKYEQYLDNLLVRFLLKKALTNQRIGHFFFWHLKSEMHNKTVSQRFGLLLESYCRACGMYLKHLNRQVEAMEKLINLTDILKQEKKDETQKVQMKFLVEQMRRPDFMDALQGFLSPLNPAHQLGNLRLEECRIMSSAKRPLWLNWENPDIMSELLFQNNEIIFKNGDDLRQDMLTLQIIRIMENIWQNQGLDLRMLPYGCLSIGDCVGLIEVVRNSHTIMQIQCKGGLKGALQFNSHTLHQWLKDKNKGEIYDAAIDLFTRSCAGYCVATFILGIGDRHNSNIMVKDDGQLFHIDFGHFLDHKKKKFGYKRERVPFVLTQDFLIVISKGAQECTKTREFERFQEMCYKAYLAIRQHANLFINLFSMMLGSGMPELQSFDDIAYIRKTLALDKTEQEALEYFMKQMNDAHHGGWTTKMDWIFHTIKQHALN
Sequence of PI3K-alpha (P27986 whole entry partner, species assumed): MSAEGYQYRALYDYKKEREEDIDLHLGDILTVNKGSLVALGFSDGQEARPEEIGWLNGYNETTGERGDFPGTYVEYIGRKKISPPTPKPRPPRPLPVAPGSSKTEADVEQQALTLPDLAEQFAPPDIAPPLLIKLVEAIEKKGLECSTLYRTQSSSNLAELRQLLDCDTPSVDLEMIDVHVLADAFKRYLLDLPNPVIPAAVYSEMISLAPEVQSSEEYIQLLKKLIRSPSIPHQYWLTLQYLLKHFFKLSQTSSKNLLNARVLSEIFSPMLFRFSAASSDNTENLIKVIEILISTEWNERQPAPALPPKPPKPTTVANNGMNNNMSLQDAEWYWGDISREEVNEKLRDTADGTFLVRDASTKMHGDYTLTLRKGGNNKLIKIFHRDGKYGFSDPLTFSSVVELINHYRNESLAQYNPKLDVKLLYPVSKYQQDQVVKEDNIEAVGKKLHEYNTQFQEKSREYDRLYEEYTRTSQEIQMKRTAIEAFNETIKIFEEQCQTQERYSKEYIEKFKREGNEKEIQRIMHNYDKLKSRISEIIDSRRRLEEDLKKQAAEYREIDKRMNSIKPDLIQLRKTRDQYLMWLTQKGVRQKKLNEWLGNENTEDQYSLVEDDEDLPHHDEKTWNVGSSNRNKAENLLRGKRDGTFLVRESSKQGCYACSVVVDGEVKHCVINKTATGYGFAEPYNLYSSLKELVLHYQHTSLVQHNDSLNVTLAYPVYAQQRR
Sequence of PI3K-delta (O00329 whole entry, species assumed): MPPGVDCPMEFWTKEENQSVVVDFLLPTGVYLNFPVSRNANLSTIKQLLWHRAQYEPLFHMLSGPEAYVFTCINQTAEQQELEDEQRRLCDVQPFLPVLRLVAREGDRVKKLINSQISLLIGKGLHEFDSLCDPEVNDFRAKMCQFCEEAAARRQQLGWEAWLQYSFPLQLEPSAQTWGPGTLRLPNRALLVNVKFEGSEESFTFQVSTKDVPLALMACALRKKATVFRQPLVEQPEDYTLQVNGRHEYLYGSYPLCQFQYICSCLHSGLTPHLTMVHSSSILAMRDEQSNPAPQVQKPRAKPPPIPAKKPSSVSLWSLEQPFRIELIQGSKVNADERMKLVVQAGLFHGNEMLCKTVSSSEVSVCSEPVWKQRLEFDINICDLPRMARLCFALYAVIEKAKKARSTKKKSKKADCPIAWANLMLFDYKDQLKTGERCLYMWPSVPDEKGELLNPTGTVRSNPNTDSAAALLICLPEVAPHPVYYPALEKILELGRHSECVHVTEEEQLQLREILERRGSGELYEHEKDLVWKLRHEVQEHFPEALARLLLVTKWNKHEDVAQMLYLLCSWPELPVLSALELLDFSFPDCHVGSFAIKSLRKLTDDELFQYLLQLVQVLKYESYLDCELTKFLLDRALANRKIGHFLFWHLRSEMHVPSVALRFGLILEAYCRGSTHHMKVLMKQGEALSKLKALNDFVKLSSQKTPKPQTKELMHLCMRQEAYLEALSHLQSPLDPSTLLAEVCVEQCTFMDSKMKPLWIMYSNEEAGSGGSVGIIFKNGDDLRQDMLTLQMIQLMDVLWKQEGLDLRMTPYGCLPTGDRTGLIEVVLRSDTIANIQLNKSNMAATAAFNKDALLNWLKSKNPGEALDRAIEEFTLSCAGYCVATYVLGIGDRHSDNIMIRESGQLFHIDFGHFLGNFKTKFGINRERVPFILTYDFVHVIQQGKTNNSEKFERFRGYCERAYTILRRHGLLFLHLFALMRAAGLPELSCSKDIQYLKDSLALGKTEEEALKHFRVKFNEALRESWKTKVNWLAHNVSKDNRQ
Sequence of PI3K-delta (P27986 whole entry partner, species assumed): as the sequence (P27986 whole entry partner, species assumed) above
Sequence of PI3K-gamma (P48736 whole entry, species assumed, the tested form may be a part): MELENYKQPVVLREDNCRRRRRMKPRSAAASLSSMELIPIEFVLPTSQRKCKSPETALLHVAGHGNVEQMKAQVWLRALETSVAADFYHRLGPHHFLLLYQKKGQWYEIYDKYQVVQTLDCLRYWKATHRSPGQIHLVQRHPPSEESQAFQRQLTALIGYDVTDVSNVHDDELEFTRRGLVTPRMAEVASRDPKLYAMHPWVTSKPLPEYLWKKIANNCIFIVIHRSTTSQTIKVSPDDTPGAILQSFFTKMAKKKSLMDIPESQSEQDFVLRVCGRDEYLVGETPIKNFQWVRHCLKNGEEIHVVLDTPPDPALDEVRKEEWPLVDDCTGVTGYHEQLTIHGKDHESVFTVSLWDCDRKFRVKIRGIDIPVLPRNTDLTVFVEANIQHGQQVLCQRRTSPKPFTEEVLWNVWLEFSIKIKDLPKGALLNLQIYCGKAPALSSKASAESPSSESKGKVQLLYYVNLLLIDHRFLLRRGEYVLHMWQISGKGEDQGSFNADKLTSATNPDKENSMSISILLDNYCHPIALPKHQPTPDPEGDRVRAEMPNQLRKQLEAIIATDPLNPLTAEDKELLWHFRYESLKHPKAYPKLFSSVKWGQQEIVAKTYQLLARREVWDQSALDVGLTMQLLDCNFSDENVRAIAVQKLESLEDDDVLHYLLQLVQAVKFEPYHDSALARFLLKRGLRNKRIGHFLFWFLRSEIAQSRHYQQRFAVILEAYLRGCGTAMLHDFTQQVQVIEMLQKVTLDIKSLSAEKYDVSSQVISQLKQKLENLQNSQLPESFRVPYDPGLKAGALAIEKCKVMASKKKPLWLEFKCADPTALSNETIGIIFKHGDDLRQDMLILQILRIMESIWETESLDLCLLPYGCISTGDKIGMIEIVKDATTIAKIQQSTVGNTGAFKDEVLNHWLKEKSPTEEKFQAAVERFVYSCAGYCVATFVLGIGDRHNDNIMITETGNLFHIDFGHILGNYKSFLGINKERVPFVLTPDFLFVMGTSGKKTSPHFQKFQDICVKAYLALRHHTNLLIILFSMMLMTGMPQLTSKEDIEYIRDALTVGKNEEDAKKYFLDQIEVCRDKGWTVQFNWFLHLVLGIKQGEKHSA
Sequence of PI3K-beta (P42338 whole entry, species assumed): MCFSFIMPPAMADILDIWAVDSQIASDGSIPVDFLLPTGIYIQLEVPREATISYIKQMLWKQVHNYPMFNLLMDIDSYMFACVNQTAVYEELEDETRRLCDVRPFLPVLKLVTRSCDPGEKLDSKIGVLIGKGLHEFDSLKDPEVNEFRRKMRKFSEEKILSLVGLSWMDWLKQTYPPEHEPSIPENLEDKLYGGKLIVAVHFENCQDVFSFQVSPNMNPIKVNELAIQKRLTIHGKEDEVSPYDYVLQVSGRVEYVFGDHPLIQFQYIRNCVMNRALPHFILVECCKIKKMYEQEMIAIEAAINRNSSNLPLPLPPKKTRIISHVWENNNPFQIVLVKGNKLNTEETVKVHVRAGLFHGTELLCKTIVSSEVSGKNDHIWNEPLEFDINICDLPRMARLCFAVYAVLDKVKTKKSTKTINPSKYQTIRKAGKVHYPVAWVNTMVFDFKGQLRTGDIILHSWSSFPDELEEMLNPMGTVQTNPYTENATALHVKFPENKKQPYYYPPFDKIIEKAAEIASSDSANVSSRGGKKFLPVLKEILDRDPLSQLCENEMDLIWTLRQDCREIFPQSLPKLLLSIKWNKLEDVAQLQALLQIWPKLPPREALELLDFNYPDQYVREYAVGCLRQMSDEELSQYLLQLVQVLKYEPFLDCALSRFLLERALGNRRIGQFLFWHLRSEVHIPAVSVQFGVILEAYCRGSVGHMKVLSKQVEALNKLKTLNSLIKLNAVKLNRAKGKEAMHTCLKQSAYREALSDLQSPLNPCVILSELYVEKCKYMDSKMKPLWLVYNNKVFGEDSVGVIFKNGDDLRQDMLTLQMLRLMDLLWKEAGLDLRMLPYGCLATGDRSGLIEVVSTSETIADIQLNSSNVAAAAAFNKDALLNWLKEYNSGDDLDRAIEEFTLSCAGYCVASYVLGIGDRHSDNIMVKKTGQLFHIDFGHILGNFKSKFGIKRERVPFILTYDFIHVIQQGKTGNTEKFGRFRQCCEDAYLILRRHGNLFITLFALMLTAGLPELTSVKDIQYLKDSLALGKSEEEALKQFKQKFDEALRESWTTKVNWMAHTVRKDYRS
Sequence of PI3K-beta (P27986 whole entry partner, species assumed): as the sequence (P27986 whole entry partner, species assumed) above

Turning to `COc1ccc2c(c1)c(/C=C1\Oc3ccc(NC(=O)Nc4ccc(C(=O)N5CCN(C)CC5)cc4)cc3C1=O)c(C)n2CCN1CCN(C)CC1` [Compound 618, 1-[(2Z)-2-({5-methoxy-2-methyl-1-[2-(4-methylpiperazin-1-yl)ethyl]-1H-indol-3-yl}methylene)-3-oxo-2,3-dihydro-1-benzofuran-5-yl]-3-{4-[(4-methylpiperazin-1-yl)carbonyl]phenyl}urea], the IC50 – broadly, the midpoint of a concentration-inhibition curve – stood at 0.5 nM at PI3K-alpha (read-out: PI3Kα Avg. IC50), 5 nM on PI3K-delta and 100 nM at human TOR.
On to `COc1ccc2c(c1)c(/C=C1\Oc3ccc(NC(=O)Nc4ccc(C(=O)N5CCN(C)CC5)cc4)cc3C1=O)c(C)n2CCO` [Compound 619, 1-[(2Z)-2-{[1-(2-hydroxyethyl)-5-methoxy-2-methyl-1H-indol-3-yl]methylene}-3-oxo-2,3-dihydro-1-benzofuran-5-yl]-3-{4-[(4-methylpiperazin-1-yl)carbonyl]phenyl}urea], for which the IC50 is 0.2 nM at PI3K-alpha (read-out: PI3Kα Avg. IC50), 2.5 nM at PI3K-delta and 38 nM on human TOR.
As to `CCn1c(C)c(/C=C2\Oc3ccc(NC(=O)Nc4ccc(C(=O)N5CCN(C)CC5)cc4)cc3C2=O)c2cc(OC)ccc21` [Compound 620, 1-{(2Z)-2-[(1-ethyl-5-methoxy-2-methyl-1H-indol-3-yl)methylene]-3-oxo-2,3-dihydro-1-benzofuran-5-yl}-3-{4-[(4-methylpiperazin-1-yl)carbonyl]phenyl}urea], the IC50 at PI3K-alpha (read-out: PI3Kα Avg. IC50) came out at 0.3 nM; at PI3K-delta, 2 nM; at human TOR, 240 nM.
Consider `CNC(=O)Nc1ccc2c(c1)C(=O)/C(=C/c1c(-c3c(C)nn(C)c3C)[nH]c3ccc(OC)cc13)O2` [Compound 627, 1-[(2Z)-2-{[5-methoxy-2-(1,3,5-trimethyl-1H-pyrazol-4-yl)-1H-indol-3-yl]methylidene}-3-oxo-2,3-dihydro-1-benzofuran-5-yl]-3-methylurea], for which the IC50 at PI3K-alpha (read-out: PI3Kα Avg. IC50) is 0.6 nM; on PI3K-beta, 28.5 nM; against PI3K-gamma (PI3Kγ Avg. IC50), 4.65 nM; at PI3K-delta it was 4.5 nM.
As for `CCn1c(C)c(/C=C2\Oc3ccc(NC(=O)Nc4ccc(C(=O)N(C)CCN(C)C)cc4)cc3C2=O)c2cc(OC)ccc21` [Compound 639, N-[2-(dimethylamino)ethyl]-4-[({(2Z)-2-[(1-ethyl-5-methoxy-2-methyl-1H-indol-3-yl)methylene]-3-oxo-2,3-dihydro-1-benzofuran-5-yl}carbamoyl)amino]-N-methylbenzamide], the IC50 at PI3K-alpha (read-out: PI3Kα Avg. IC50) was found to be 0.33 nM; on PI3K-beta it was 5 nM; against PI3K-gamma (PI3Kγ Avg. IC50), 3.42 nM; at PI3K-delta, 1.45 nM; at human TOR it was 12 nM.
`COc1cc(F)c2[nH]c(-c3c(C)nn(C)c3C)c(/C=C3\Oc4ccc(NC(=O)Nc5ccc(C(=O)N(C)CCN(C)C)cc5)cc4C3=O)c2c1` [Compound 710, N-[2-(dimethylamino)ethyl]-4-({[(2Z)-2-{[7-fluoro-5-methoxy-2-(1,3,5-trimethyl-1H-pyrazol-4-yl)-1H-indol-3-yl]methylidene}-3-oxo-2,3-dihydro-1-benzofuran-5-yl]carbamoyl}amino)-N-methylbenzamide]: the 50% inhibitory concentration (IC50) is 0.2 nM at PI3K-alpha (read-out: PI3Kα Avg. IC50); 0.7 nM on PI3K-beta; 2.35 nM on PI3K-gamma (PI3Kγ Avg. IC50); 0.6 nM at PI3K-delta; under 1 nM at human TOR.
In the case of `O=C1C(=Cc2c(-c3ccccc3)[nH]c3ccccc23)Oc2cc(O)cc(O)c21` [Example 14, 4,6-dihydroxy-2-[(2-phenyl-1H-indol-3-yl)methylene]-1-benzofuran-3(2H)-one], the IC50 against PI3K-alpha (PI3Kα Avg. IC50) was determined as 1030 nM; at PI3K-beta, 736 nM; against PI3K-gamma (PI3Kγ Avg. IC50), 2780 nM; at PI3K-delta, 381 nM; at human TOR, 130 nM.
The matching figures for `O=C1/C(=C/c2c[nH]c3ccc(Br)cc23)Oc2cc(O)cc(O)c21` [Example 50, (2Z)-2-[(5-bromo-1H-indol-3-yl)methylene]-4,6-dihydroxy-1-benzofuran-3(2H)-one]: 422 nM, 358 nM, 1620 nM, 387 nM and 3700 nM.
As for `O=C1/C(=C/c2c(-c3ccccc3)[nH]c3ccccc23)Oc2c1ccc(O)c2O` [Example 53, (2Z)-6,7-dihydroxy-2-[(2-phenyl-1H-indol-3-yl)methylene]-1-benzofuran-3(2H)-one], the concentration for half-maximal inhibition (IC50) on PI3K-alpha (read-out: PI3Kα Avg. IC50) is 182 nM; on PI3K-beta it was 132 nM; against PI3K-gamma (PI3Kγ Avg. IC50) it was 1470 nM; on PI3K-delta it was 70.3 nM; at human TOR, over 30000 nM.
Consider `COc1ccc2[nH]c(-c3ccccc3)c(C=C3Oc4cc(O)cc(O)c4C3=O)c2c1` [Example 70, 4,6-dihydroxy-2-[(5-methoxy-2-phenyl-1H-indol-3-yl)methylene]-1-benzofuran-3(2H)-one], for which the half-maximal inhibitory concentration (IC50) at PI3K-beta was 26 nM; against PI3K-gamma (PI3Kγ Avg. IC50), 13.4 nM; at PI3K-delta, 5.3 nM; on human TOR, under 30 nM.
As for `COc1ccc2c(c1)c(C=C1Oc3cc(O)cc(O)c3C1=O)c(C)n2CCCCCl` [Example 87, 2-{[1-(4-chlorobutyl)-5-methoxy-2-methyl-1H-indol-3-yl]methylene}-4,6-dihydroxy-1-benzofuran-3(2H)-one], the IC50 is 72 nM at PI3K-beta, 142 nM at PI3K-gamma (PI3Kγ Avg. IC50), 6 nM on PI3K-delta and under 24 nM on human TOR.
Turning to `COc1ccc2c(c1)c(C=C1Oc3cc(O)cc(O)c3C1=O)c(C)n2CCN1CCN(C)CC1` [Example 108, 4,6-dihydroxy-2-({5-methoxy-2-methyl-1-[2-(4-methylpiperazin-1-yl)ethyl]-1H-indol-3-yl}methylene)-1-benzofuran-3(2H)-one], the IC50 on PI3K-alpha (PI3Kα Avg. IC50) was 5 nM; on PI3K-beta it was 7.5 nM; at PI3K-gamma (PI3Kγ Avg. IC50), 474 nM; at human TOR, under 34 nM.
Consider `COc1ccc2c(c1)c(/C=C1\Oc3cc(O)cc(O)c3C1=O)c(C)n2CCN1CCN(C)CC1` [Example 309, (2Z)-4,6-Dihydroxy-2-({5-methoxy-2-methyl-1-[2-(4-methylpiperazin-1-yl)ethyl]-1H-indol-3-yl}methylene)-1-benzofuran-3(2H)-one], for which the 50% inhibitory concentration (IC50) on PI3K-alpha (read-out: PI3Kα Avg. IC50) was 2 nM; on PI3K-beta it was 6.5 nM; at PI3K-gamma (PI3Kγ Avg. IC50), 268 nM; on human TOR, under 27 nM.
For `COc1ccc2c(c1)c(/C=C1\Oc3cc(O)cc(Cl)c3C1=O)c(C)n2CCCN(C)C` [Example 466, (2Z)-4-Chloro-2-({1-[3-(dimethylamino)propyl]-5-methoxy-2-methyl-1H-indol-3-yl}methylene)-6-hydroxy-1-benzofuran-3(2H)-one], the IC50 was 73 nM at PI3K-alpha (read-out: PI3Kα Avg. IC50), 1270 nM against PI3K-gamma (PI3Kγ Avg. IC50) and 7500 nM at human TOR.
The matching figures for `COc1ccc2c(c1)c(/C=C1\Oc3cc(O)cc(Cl)c3C1=O)c(C)n2CCN1CCN(C)CC1` [Example 467, (2Z)-4-Chloro-6-hydroxy-2-({5-methoxy-2-methyl-1-[2-(4-methylpiperazin-1-yl)ethyl]-1H-indol-3-yl}methylene)-1-benzofuran-3(2H)-one]: 50.5 nM, 1790 nM and 425 nM.
With `COc1ccc2c(c1)c(/C=C1\Oc3cc(O)cc(C)c3C1=O)c(C)n2CCCN(C)C` [Example 468, (2Z)-2-({1-[3-(Dimethylamino)propyl]-5-methoxy-2-methyl-1H-indol-3-yl}methylene)-6-hydroxy-4-methyl-1-benzofuran-3(2H)-one], the IC50 was 48.5 nM at PI3K-alpha (read-out: PI3Kα Avg. IC50), 3200 nM on PI3K-gamma (PI3Kγ Avg. IC50) and 2200 nM at human TOR.
On to `COc1ccc2c(c1)c(/C=C1\Oc3cc(O)ccc3C1=O)c(-c1c(C)noc1C)n2CCN1CCN(C)CC1` [Example 469, (2Z)-2-({2-(3,5-Dimethylisoxazol-4-yl)-5-methoxy-1-[2-(4-methylpiperazin-1-yl)ethyl]-1H-indol-3-yl}methylene)-6-hydroxy-1-benzofuran-3(2H)-one], for which the IC50 on PI3K-alpha (read-out: PI3Kα Avg. IC50) stood at 23.5 nM; against PI3K-gamma (PI3Kγ Avg. IC50) it was 942 nM; on human TOR, 165 nM.
The matching figures for `COc1ccc2c(c1)c(/C=C1\Oc3cc(O)ccc3C1=O)c(C)n2CCN1CCCCCC1` [Example 470, (2Z)-2-{[1-(2-Azepan-1-ylethyl)-5-methoxy-2-methyl-1H-indol-3-yl]methylene}-6-hydroxy-1-benzofuran-3(2H)-one]: 35.5 nM, 656 nM and 2300 nM.
On to “(2Z)-2-[(4-Bromo-1-methyl-1H-indol-3-yl)methylene]-4,6-dimethoxybenzofuran-3(2H)-one [Example 408]”, for which the values for the IC50 on PI3K-alpha (read-out: PI3Kα Avg. IC50), on PI3K-gamma (read-out: PI3Kγ Avg. IC50) and on human TOR were 3310 nM, 1940 nM and over 20000 nM, respectively.

Values taken from patent publication US20090311217A1, “3-SUBSTITUTED-1H-INDOLE COMPOUNDS, THEIR USE AS MTOR KINASE AND PI3 KINASE INHIBITORS, AND THEIR SYNTHESES” (priority 2008, published 2009).
